According to ChEMBL document CHEMBL2440076, “New triarylpyrazoles as broad-spectrum anticancer agents: design, synthesis, and biological evaluation” (Eur J Med Chem, 2013):

What was measured:
[1] = tested on: MOLT-4; assay: Growth inhibition of human MOLT4 cells assessed as cell growth at 10 uM after 48 hrs by sulforhodamine B assay; format: functional; details: MOLT-4, 48 h, read-out: Activity
[2] = tested on: K562; assay: Growth inhibition of human K562 cells after 48 hrs by sulforhodamine B assay; format: functional; details: K562, 48 h
[3] = tested on: NCI-H522; assay: Growth inhibition of human NCI-H522 cells assessed as cell growth at 10 uM after 48 hrs by sulforhodamine B assay; format: functional; details: NCI-H522, 48 h, read-out: Activity
[4] = tested on: BT-549; assay: Growth inhibition of human BT549 cells after 48 hrs by sulforhodamine B assay; format: functional; details: BT-549, 48 h
[5] = Growth inhibition of human Hs 578T cells assessed as cell growth at 10 uM after 48 hrs by sulforhodamine B assay; format: functional; details: read-out: Activity
[6] = tested on: SK-MEL-2; assay: Growth inhibition of human SK-MEL-2 cells after 48 hrs by sulforhodamine B assay; format: functional; details: SK-MEL-2, 48 h
[7] = tested on: SNB-19; assay: Growth inhibition of human SNB19 cells after 48 hrs by sulforhodamine B assay; format: functional; details: SNB-19, 48 h
[8] = tested on: A498; assay: Growth inhibition of human A498 cells assessed as cell growth at 10 uM after 48 hrs by sulforhodamine B assay; format: functional; details: A498, 48 h, read-out: Activity
[9] = tested on: SK-OV-3; assay: Growth inhibition of human SKOV3 cells assessed as cell growth at 10 uM after 48 hrs by sulforhodamine B assay; format: functional; details: SK-OV-3, 48 h, read-out: Activity
[10] = tested on: NCI-H460; assay: Growth inhibition of human NCI-H460 cells assessed as cell growth at 10 uM after 48 hrs by sulforhodamine B assay; format: functional; details: NCI-H460, 48 h, read-out: Activity
[11] = tested on: TK-10; assay: Growth inhibition of human TK10 cells assessed as cell growth at 10 uM after 48 hrs by sulforhodamine B assay; format: functional; details: TK-10, 48 h, read-out: Activity
[12] = tested on: SK-MEL-28; assay: Growth inhibition of human SK-MEL-28 cells after 48 hrs by sulforhodamine B assay; format: functional; details: SK-MEL-28, 48 h
[13] = tested on: OVCAR-4; assay: Growth inhibition of human OVCAR4 cells assessed as cell growth at 10 uM after 48 hrs by sulforhodamine B assay; format: functional; details: OVCAR-4, 48 h, read-out: Activity
[14] = tested on: PC-3; assay: Growth inhibition of human PC3 cells assessed as cell growth at 10 uM after 48 hrs by sulforhodamine B assay; format: functional; details: PC-3, 48 h, read-out: Activity
[15] = tested on: MDA-MB-231; assay: Growth inhibition of human MDA-MB-231 cells after 48 hrs by sulforhodamine B assay; format: functional; details: MDA-MB-231, 48 h
[16] = tested on: SK-MEL-5; assay: Growth inhibition of human SK-MEL-5 cells assessed as cell growth at 10 uM after 48 hrs by sulforhodamine B assay; format: functional; details: SK-MEL-5, 48 h, read-out: Activity
[17] = tested on: U-251; assay: Growth inhibition of human U251 cells assessed as cell growth at 10 uM after 48 hrs by sulforhodamine B assay; format: functional; details: U-251, 48 h, read-out: Activity
[18] = tested on: KM12; assay: Growth inhibition of human KM12 cells assessed as cell growth at 10 uM after 48 hrs by sulforhodamine B assay; format: functional; details: KM12, 48 h, read-out: Activity
[19] = tested on: A549; assay: Growth inhibition of human A549/ATCC cells assessed as cell growth at 10 uM after 48 hrs by sulforhodamine B assay; format: functional; details: A549, 48 h, read-out: Activity
[20] = tested on: MDA-MB-435; assay: Growth inhibition of human MDA-MB-435 cells after 48 hrs by sulforhodamine B assay; format: functional, cell-based; details: MDA-MB-435, 48 h
[21] = tested on: COLO 205; assay: Growth inhibition of human COLO205 cells after 48 hrs by sulforhodamine B assay; format: functional; details: COLO 205, 48 h
[22] = tested on: T47D; assay: Growth inhibition of human T47D cells assessed as cell growth at 10 uM after 48 hrs by sulforhodamine B assay; format: functional; details: read-out: Activity
[23] = tested on: HOP-62; assay: Growth inhibition of human HOP62 cells assessed as cell growth at 10 uM after 48 hrs by sulforhodamine B assay; format: functional; details: HOP-62, 48 h, read-out: Activity
[24] = tested on: RPMI-8226; assay: Growth inhibition of human RPMI8226 cells assessed as cell growth at 10 uM after 48 hrs by sulforhodamine B assay; format: functional; details: RPMI-8226, 48 h, read-out: Activity
[25] = tested on: HCT-15; assay: Growth inhibition of human HCT15 cells assessed as cell growth at 10 uM after 48 hrs by sulforhodamine B assay; format: functional; details: HCT-15, 48 h, read-out: Activity
[26] = tested on: NCI-H23; assay: Growth inhibition of human NCI-H23 cells after 48 hrs by sulforhodamine B assay; format: functional; details: NCI-H23, 48 h
[27] = tested on: HT-29; assay: Growth inhibition of human HT-29 cells after 48 hrs by sulforhodamine B assay; format: functional; details: HT-29, 48 h
[28] = tested on: BT-549; assay: Growth inhibition of human BT549 cells assessed as cell growth at 10 uM after 48 hrs by sulforhodamine B assay; format: functional; details: BT-549, 48 h, read-out: Activity
[29] = tested on: T47D; assay: Growth inhibition of human T47D cells after 48 hrs by sulforhodamine B assay; format: functional
[30] = tested on: SN12C; assay: Growth inhibition of human SN12C cells assessed as cell growth at 10 uM after 48 hrs by sulforhodamine B assay; format: functional; details: read-out: Activity
[31] = tested on: MDA-MB-468; assay: Growth inhibition of human MDA-MB-468 cells assessed as cell growth at 10 uM after 48 hrs by sulforhodamine B assay; format: functional; details: MDA-MB-468, 48 h, read-out: Activity
[32] = tested on: CAKI-1; assay: Growth inhibition of human CAKI-1 cells after 48 hrs by sulforhodamine B assay; format: functional; details: CAKI-1, 48 h
[33] = tested on: RXF 393; assay: Growth inhibition of human RXF393 cells after 48 hrs by sulforhodamine B assay; format: functional; details: RXF 393, 48 h
[34] = read-out: LC50 (the source's name)

Question: For `O=C(Nc1cccc(-n2cc(-c3ccncc3)c(-c3ccc(Cl)c(O)c3)n2)c1)Nc1ccc(Cl)c(C(F)(F)F)c1`, which growth at 10 µM [1] is on record?
Answer: -22.1%

Question: What about the GI50 [2] of the same compound?
Answer: 921 nM

Question: And the TGI [2]?
Answer: > 32500 nM

Question: What about the CC50 [2, 34] of the same compound?
Answer: > 32500 nM

Question: What about the growth at 10 µM [3] of the same compound?
Answer: -30%

Question: And the GI50 [4]?
Answer: 1250 nM

Question: And the LC50 (50% lethal concentration) [4]?
Answer: > 32500 nM

Question: And the TGI [4]?
Answer: 8070 nM

Question: What about the growth at 10 µM [5] of the same compound?
Answer: -7.39%

Question: And the GI50 [6]?
Answer: 798 nM

Question: What about the LC50 (50% lethal concentration) [6] of the same compound?
Answer: 5840 nM

Question: What about the TGI [6] of the same compound?
Answer: 1730 nM

Question: And the GI50 [7]?
Answer: 1120 nM

Question: And the LC50 (concentration killing 50% of cells) [7]?
Answer: > 32500 nM

Question: What about the TGI [7] of the same compound?
Answer: 4860 nM

Question: What about the growth at 10 µM [8] of the same compound?
Answer: 11.2%

Question: And the growth at 10 µM [9]?
Answer: 7.47%

Question: And the growth at 10 µM [10]?
Answer: -43.7%

Question: And the growth at 10 µM [11]?
Answer: -1.62%

Question: What about the GI50 [12] of the same compound?
Answer: 978 nM

Question: And the LC50 [12]?
Answer: 12400 nM

Question: What about the TGI [12] of the same compound?
Answer: 3330 nM

Question: And the growth at 10 µM [13]?
Answer: -3.42%

Question: What about the growth at 10 µM [14] of the same compound?
Answer: -10.4%

Question: What about the GI50 [15] of the same compound?
Answer: 488 nM

Question: What about the LC50 [15] of the same compound?
Answer: 11400 nM

Question: And the TGI [15]?
Answer: 1440 nM

Question: And the growth at 10 µM [16]?
Answer: -100%

Question: And the growth at 10 µM [17]?
Answer: -70.4%

Question: And the growth at 10 µM [18]?
Answer: -27.3%

Question: And the growth at 10 µM [19]?
Answer: -21.3%

Question: What about the GI50 [20] of the same compound?
Answer: 660 nM

Question: And the IC50 [20]?
Answer: 660 nM

Question: And the TGI [20]?
Answer: 1770 nM

Question: What about the CC50 [20, 34] of the same compound?
Answer: 21500 nM

Question: And the GI50 [21]?
Answer: 2390 nM

Question: And the LC50 (concentration killing 50% of cells) [21]?
Answer: 16100 nM

Question: What about the TGI [21] of the same compound?
Answer: 6750 nM

Question: What about the growth at 10 µM [22] of the same compound?
Answer: -7.12%

Question: And the growth at 10 µM [23]?
Answer: -17%

Question: What about the growth at 10 µM [24] of the same compound?
Answer: -10.5%

Question: And the growth at 10 µM [25]?
Answer: 1.04%

Question: And the GI50 [26]?
Answer: 951 nM

Question: And the LC50 [26]?
Answer: 26100 nM

Question: And the TGI [26]?
Answer: 3330 nM

Question: What about the GI50 [27] of the same compound?
Answer: 1280 nM

Question: What about the TGI [27] of the same compound?
Answer: 5730 nM

Question: What about the CC50 [27, 34] of the same compound?
Answer: 22600 nM

Question: And the growth at 10 µM [28]?
Answer: 1.33%

Question: What about the GI50 [29] of the same compound?
Answer: 1120 nM

Question: What about the TGI [29] of the same compound?
Answer: > 32500 nM

Question: And the CC50 [29, 34]?
Answer: > 32500 nM

Question: What about the growth at 10 µM [30] of the same compound?
Answer: 7.46%

Question: What about the growth at 10 µM [31] of the same compound?
Answer: -49.5%

Question: What about the GI50 [32] of the same compound?
Answer: 795 nM

Question: What about the TGI [32] of the same compound?
Answer: 2630 nM

Question: What about the CC50 [32, 34] of the same compound?
Answer: > 32500 nM

Question: What about the GI50 [33] of the same compound?
Answer: 508 nM

Question: What about the LC50 (concentration killing 50% of cells) [33] of the same compound?
Answer: > 32500 nM

Question: What about the TGI [33] of the same compound?
Answer: 1670 nM
